Laboratory results reported in patent US9662404B2, “Compositions and methods for the delivery of molecules into live cells” (The Texas A&M University System, priority 2013, dated 2017).
Ends that are not written are not given here.

Columns and labels:
HeLa cells [1] = assay: Delivery of peptides inside live cells, internalization assessed by fluorescence microscopy; format: cell-based; conditions: for cellular localization of peptide fluorescence: 1 h incubation
Description: (§1) The TAT, dTAT and acTAT peptides were incubated for 1 h with several cell lines and internalization was assessed by fluorescence microscopy. […] See also FIG. 5. […] The cell lines HeLa, NIH 3T3, COLO 316 and HaCaT were incubated with 5 μM dTAT for 1 h, washed and imaged. […] After imaging, cells were incubated at 37° C. in a humidified atmosphere containing 5% CO2 for 24 h, washed and imaged again. […] Cell viability was assessed by exclusion of the cell-impermeable nuclear stain SYTOX® Blue at both 1 h and 24 h time point. […] Inverted monochrome (black=fluorescence signal, white-no signal) fluorescence images were made of HeLa cells incubated with 10 or 20 μM of TAT for 1 h.
Live cells from different lines (HeLa, HaCat, NIH 3T3) were grown in Dulbecco's […] (DMEM) (Fisher) supplemented with 10% fetal bovine serum (FBS) (Fisher) and kept at 37° C. in a humidified atmosphere containing 5% CO2. Cells were then seeded in 8-well dishes so that the cells were 80%-90% confluent after 48 h. […] The media (nrL-15) used for incubation lacks cysteine to avoid reduction of the disulfide bond of dTAT. Cells were then incubated with different concentrations of the acTAT, TAT, or dTAT at 37° C. for 1 h. […] Images were collected using a Rolera-MGI Plus back-illuminated EMCCD camera (Qimaging, Surrey, BC, Canada). Images were acquired using bright field imaging and three standard fluorescence filter sets: CFP (Ex=436±10 nm/Em=480±20 nm), RFP (Ex=560±20 nm/Em=630±35 nm), and FITC (Ex=488±10 nm/Em=520±20 nm). The fluorescence intensities of different cells were measured with the SlideBook 4.2 software (Olympus, Center Valley, Pa.) and the average fluorescence intensity was determined for each condition. It has been previously reported that CPPs labeled with fluorophores such as TMR can photosensitize membranes and cause endosomal leakage upon light irradiation. See, Srinivasan, D. et al., “Conjugation to the cell-penetrating peptide TAT potentiates the photodynamic effect of carboxytetramethylrhodamine,” PloS one 6:e17732 (2011) and Muthukrishnan, N., et al., “Synergy Between Cell-Penetrating Peptides and Singlet Oxygen Generators Leads to Efficient Photolysis of Membranes,” Photochemistry and Photobiology 89:625-630 (2012), each incorporated herein by reference in its entirety. […] First, all delivery experiments were performed under conditions of minimal light irradiation (dark room with dim red light). When fluorescence imaging is required, probes (e.g., SNAP surface 488, EGFP) are imaged before dTAT is, thereby minimizing the possible effect of light on endosomal release. For experiments performed with Cre and Hoxb4, cells are not imaged and not exposed to light (not at all for Hoxb4, 12 h after incubation for Cre).

[2] = tested on: HeLa, NIH 3T3, COLO 316 and HaCaT; conditions: 5 μM
Description: as §1
Live cells from different lines (HeLa, HaCat, NIH 3T3) were grown in Dulbecco's […] (DMEM) (Fisher) supplemented with 10% fetal bovine serum (FBS) (Fisher) and kept at 37° C. in a humidified atmosphere containing 5% CO2. […] Images were acquired using bright field imaging and three standard fluorescence filter sets: CFP (Ex=436±10 nm/Em=480±20 nm), RFP (Ex=560±20 nm/Em=630±35 nm), and FITC (Ex=488±10 nm/Em=520±20 nm). The fluorescence intensities of different cells were measured with the SlideBook 4.2 software (Olympus, Center Valley, Pa.) and the average fluorescence intensity was determined for each condition. […]

[3] = tested on: HeLa, Neuro-2a and HDF cells; assay: Cell proliferation, MTT assay in several cell types; format: cell-based; conditions: 5 μM, 1 h; up to 36 h after incubation
Description: FIG. 12 illustrates that cells treated with dTAT proliferate at a rate identical to untreated cells. HeLa, Neuro-2a and HDF cells were incubated with 5 μM dTAT for 1 h or left untreated. Proliferation was assessed using a MTT assay for up to 36 h after incubation (150,000 cells/experiment, experiments in triplicates, average and standard deviations represented).
In order to determine cells that had compromised plasma membranes, cells were treated with SYTOX® Green (SYTOX® Blue in some cases) and Hoechst (Invitrogen, Carlsbad, Calif.). SYTOX® dyes are cell-impermeable and stain the DNA of cells with compromised plasma membranes. The Hoechst dye is cell permeable and stains the DNA of all cells. Images were acquired using the green and blue filter. The green and blue images were used to count cells with a blue or green stained nucleus. Image J was used to count the dead (green) and total cells (blue). Cytotoxicity was determined from the ratio of SYTOX® Green positive cells/total number of cells. […] After the incubation each sample was mixed and the absorbance at 600 nm was measured. […] A second control consisted of cells treated with the delivery peptide but to which no MTT was added to subtract the contribution of TMR from the measured absorbance. The absorbance of the negative control was subtracted from all samples.

HeLa cells [4] = assay: Step-wise repeated delivery of DEAC-K9 and SNAP-Surface 488; format: cell-based; conditions: 5 μM dTAT + 5 μM DEAC-K9 1 h, then 5 μM dTAT + 5 μM SNAP-Surface 488 1 h
Description: To test this idea, the step-wise delivery of two different molecules (DEAC-K9 and SNAP-Surface® 488) was assessed. Cells were first incubated with dTAT (5 μM) and DEAC-K9 (5 μM) for 1 h. […] Twenty minutes later, cells were incubated with dTAT (5 μM) and SNAP-Surface® 488 (5 μM) for 1 h. […] Briefly, HeLa cells were first incubated with 5 μM dTAT and 5 μM DEAC-K9 for 1 h. Cells were then washed, incubated with 5 μM SNAP-Surface® 488 for 1 h and imaged.

Question: For “(CK(TMR)TAT)2 (CK(TMR)RKKRRQRRRG; also: dimer) [dTAT, dimer of two CK(TMR)-TAT monomers linked via a disulfide bond between the N-terminal cysteine residues]”, which “cells in which cytosolic delivery is observed” value (HeLa cells [1]; 5 μM) is on record?
Answer: more than 95%

Question: And the “concentration range with dramatic increase in cytosolic delivery of the peptide” value (HeLa cells [1]; HeLa cells, dTAT 1-5 μM)?
Answer: 2 to 5 µM

Question: And the “cellular localization of peptide fluorescence” value (HeLa cells [1]; above 5 μM)?
Answer: distributed in the cytosol and nucleus

Question: What about the “cellular localization of peptide fluorescence” value (HeLa cells [1]; below 2 μM) of the same substance?
Answer: punctate

Question: And the “cellular localization of fluorescence signal” value ([2]; 1 h)?
Answer: in the cytosol and nucleus of cells

Question: What about the “plasma membrane integrity, SYTOX Blue staining” value ([2]; 1 h incubation, 1 h and 24 h time points) of the same substance?
Answer: not stained with SYTOX® Blue

Question: And the “proliferation of treated versus untreated cells” value [3]?
Answer: nearly identical proliferation patterns

Question: And the “repeatability of dTAT-mediated delivery” value (HeLa cells [4])?
Answer: can be repeated
